Laboratory results as given in US5616716A, “(3-(5-ethoxypyridin)yl)-alkenyl 1 amine compounds” (priority 1996, dated 1997).
pEC50, pKi: −log10 of the molar value.

Experiments:
[1] = system: dopamine release from striatal synaptosomes; assay: Determination of dopamine release (striatal synaptosomes); type: biochemical, rat (Sprague-Dawley); settings: rat striatal synaptosomes; for Dopamine Release Emax: percentage of release obtained with (S)-(-)-nicotine
Procedure: Determination of Dopamine Release
Dopamine release was measured by preparing synaptosomes from the striatal area of rat brain obtained from Sprague-Dawley rats generally according to the procedures set forth by Nagy et al. J. Neurochem., Vol. 43, pp. 1114-1123 (1984). Striata from 4 rats were homogenized in 2 ml of 0.32M sucrose buffered with 5 mM HEPES (pH 7.5), using a glass-Teflon tissue grinder. The homogenate was diluted to 5 ml with additional homogenization solution and centrifuged at 1,000 ×g for 10 min. This procedure was repeated on the new pellet and the resulting supernatant was centrifuged at 12,000 ×g for 20 min. A 3 layer discontinuous Percoll gradient consisting of 16 percent, 10 percent and 7.5 percent Percoil in HEPES-buffered sucrose was made with the final pellet dispersed in the top layer. After centrifugation at 15,000 ×g for 20 min., the synaptosomes were recovered above the 16 percent layer with a Pasteur pipette, diluted with 8 ml of perfusion buffer (128 mM NaCl, 2.4 mM KCl, 3.2 mM CaCl2, 1.2 KH2 PO4, 1.2 mM MgSO4, 25 mM HEPES pH 7.4, 10 mM dextrose, 1 mM ascorbate, 0.01 mM pargyline), and centrifuged at 15,000 ×g for 20 min. The new pellet was collected and re-suspended in perfusion buffer. The synaptosome suspension was incubated for 10 min. at 37 ° C. [^3 H]-Dopamine (Amersham, 40-60 Ci/mmol) was added to the suspension to give a final concentration of 0.1 uM, and the suspension was incubated for another 5 min. Using this method, 30 to 90 percent of the dopamine was taken up into the synaptosomes, as determined by scintillation counting following filtration through glass fiber filters soaked with 0.5 percent polyethyleneimine. A continuous perfusion system was used to monitor release following exposure to each ligand. Synaptosomes were loaded onto glass fiber filters (Gelman type A/E). Perfusion buffer was dripped onto the filters (0.2-0.3 ml/min.) and pulled through the filters with a peristaltic pump. Synaptosomes were washed with perfusion buffer for a minimum of 20 min. before addition of the ligand. After the addition of 0.2 ml of a solution containing various concentrations of ligand, the perfusate was collected into scintillation vials at 1 min. intervals and the dopamine released was quantified by scintillation counting. Peaks of radioactivity released above background were summed and the average basal release during that time was subtracted from the total. Release was expressed as a percentage of release obtained with an equal concentration of(S)--(-)--nicotine.

[2] = biological target: T1, muscle-like nicotinic receptors (TE671/RD) (Homo sapiens, UniProt P02708+P07510+Q07001); assay: cell-based; settings: ^86 Rb^+ efflux, read-out: Muscle Effect EC50
T1 construct: these cells express muscle-like nicotinic receptors; endogenous in cells; host or cells: TE671/RD (human embryonal rhabdomyosarcoma)
T1 sequence (Q07001 22-517): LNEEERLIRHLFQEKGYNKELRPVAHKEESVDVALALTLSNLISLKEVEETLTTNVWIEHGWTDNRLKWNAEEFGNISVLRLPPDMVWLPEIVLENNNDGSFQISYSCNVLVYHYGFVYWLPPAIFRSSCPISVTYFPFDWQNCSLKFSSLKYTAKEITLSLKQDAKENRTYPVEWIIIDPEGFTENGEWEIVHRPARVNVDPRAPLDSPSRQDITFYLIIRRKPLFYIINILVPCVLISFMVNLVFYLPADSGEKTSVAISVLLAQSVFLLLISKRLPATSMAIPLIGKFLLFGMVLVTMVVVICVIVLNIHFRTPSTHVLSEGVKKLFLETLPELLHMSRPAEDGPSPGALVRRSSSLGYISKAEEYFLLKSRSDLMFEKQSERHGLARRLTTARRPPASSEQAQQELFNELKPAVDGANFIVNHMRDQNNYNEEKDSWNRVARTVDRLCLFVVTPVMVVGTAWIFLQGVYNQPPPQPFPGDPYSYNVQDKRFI
T1 sequence (P07510 23-517): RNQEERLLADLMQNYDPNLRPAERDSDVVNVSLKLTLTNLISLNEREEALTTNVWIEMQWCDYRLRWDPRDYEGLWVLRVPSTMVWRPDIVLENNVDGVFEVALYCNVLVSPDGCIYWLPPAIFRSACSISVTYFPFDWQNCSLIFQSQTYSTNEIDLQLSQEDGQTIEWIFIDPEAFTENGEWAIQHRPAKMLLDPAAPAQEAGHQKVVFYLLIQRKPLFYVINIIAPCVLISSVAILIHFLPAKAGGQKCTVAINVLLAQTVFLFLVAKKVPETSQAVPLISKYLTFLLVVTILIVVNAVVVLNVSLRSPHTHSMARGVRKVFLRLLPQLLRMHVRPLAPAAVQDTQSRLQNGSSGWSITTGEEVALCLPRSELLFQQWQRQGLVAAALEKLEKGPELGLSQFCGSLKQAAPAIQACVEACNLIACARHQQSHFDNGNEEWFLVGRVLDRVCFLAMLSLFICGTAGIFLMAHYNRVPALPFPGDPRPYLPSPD
T1 sequence (P11230 24-501, further chain): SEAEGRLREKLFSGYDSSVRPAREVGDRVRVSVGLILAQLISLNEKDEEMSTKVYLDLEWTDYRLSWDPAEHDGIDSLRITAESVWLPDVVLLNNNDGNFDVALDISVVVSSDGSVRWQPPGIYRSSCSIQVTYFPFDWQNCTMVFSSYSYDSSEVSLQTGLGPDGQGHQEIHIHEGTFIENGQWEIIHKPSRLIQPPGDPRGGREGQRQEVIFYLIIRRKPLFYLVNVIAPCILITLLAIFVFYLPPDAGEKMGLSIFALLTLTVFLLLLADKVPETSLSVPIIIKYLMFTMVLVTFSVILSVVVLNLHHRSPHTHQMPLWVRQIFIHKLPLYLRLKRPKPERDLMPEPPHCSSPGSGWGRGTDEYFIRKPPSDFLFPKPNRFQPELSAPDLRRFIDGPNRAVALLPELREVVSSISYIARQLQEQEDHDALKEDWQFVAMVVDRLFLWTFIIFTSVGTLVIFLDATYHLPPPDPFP
T1 sequence (P02708 21-457): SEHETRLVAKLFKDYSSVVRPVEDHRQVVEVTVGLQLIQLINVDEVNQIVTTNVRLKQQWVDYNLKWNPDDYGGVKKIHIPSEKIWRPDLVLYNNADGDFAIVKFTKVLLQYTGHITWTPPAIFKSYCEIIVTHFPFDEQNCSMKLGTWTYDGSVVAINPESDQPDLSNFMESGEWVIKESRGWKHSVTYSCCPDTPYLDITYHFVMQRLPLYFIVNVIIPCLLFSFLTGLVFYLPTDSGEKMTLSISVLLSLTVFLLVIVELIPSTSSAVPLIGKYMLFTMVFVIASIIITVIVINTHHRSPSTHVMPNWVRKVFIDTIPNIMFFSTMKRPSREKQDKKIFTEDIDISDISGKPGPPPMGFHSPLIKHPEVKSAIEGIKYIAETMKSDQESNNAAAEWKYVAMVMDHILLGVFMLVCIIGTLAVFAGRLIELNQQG
Source text: Determination of Interaction with Muscle
Human muscle activation was established on the human clonal line TE671/RD which is derived from an embryonal rhabdomyosarcoma (Stratton et al., Carcinogen, Vol. 10, pp. 899-905 (1989)). As evidenced through pharmacological (Lukas, J. Pharmacol. Exp. Ther., Vol. 251, pp. 175-182 (1989)), electrophysiological (Oswald et al., Neurosci. Lett., Vol. 96, pp. 207-212 (1989)), and molecular biological studies (Luther et al., J. Neurosci., Vol. 9, pp. 1082-1096 (1989)) these cells express muscle-like nicotinic receptors. Nicotinic acetylcholine receptor (nAChR) function was assayed using ^86 Rb^+ efflux according to a method described by Lukas et al., Anal. Biochem., Vol. 175, pp. 212-218 (1988). Dose-response curves were plotted and the concentration resulting in half maximal activation of specific ion flux through nicotinic receptors determined for human muscle and rat ganglionic preparations (EC50).
Nicotinic acetylcholine receptor (nAChR) function was assayed using ^86 Rb^+ efflux according to a method described by Lukas et al., Anal. Biochem., Vol. 175, pp. 212-218 (1.988). […] The medium was removed and ^86 Rb^+ was quantitated using Cerenkov detection (see Lukas et al., Anal. Biochem., Vol. 175, pp. 212-218 (1988)). Specific ion efflux was determined as the difference in isotope efflux between total and non-specific efflux samples. […]

[3] = system: CNS nicotinic receptors (thalamic synaptosomes); assay: Determination of ion flux from thalamic synaptosomes (^86 Rb+ efflux; receptor activation); type: biochemical, rat; settings: for Receptor Activation Emax: percent of Emax for tetramethylammonium
Procedure: Determination of ion flux from thalamic synaptosomes
Rat brains were dissected and midbrain (thalamus and mesencephalon) removed. The midbrain was then placed into a tube on ice, homogenized, and centrifuged at 2800 rpm for 10 minutes. The supernatant was collected and centrifuged for another 20 minutes at 9650 rpm The resulting pellet was resuspended by trituration in 700 ul ice cold perfusion buffer. Synaptosomes were then loaded with ^86 Rb+ Ion efflux was determined using the methods of Marks et al., J. Pharmacol. Exp. Ther., Vol. 264, pp. 427-436 (1993). Total efflux was determined by subtraction of basal release from release at stimulation (total peak release). The ratio of the peak to baseline (Rp) was calculated for each concentration. A tetramethylammonium control (i.e., a full agonist to the receptor of interest) is used in each assay to compare each agonist's ability to stimulate rubidium efflux to the control. Emax values are reported as a percent of Emax for tetramethylammonium.

nicotinic receptors = assay: Binding of compounds to relevant receptor sites (inhibition of L-[^3 H]nicotine binding, rat brain membranes); design: species or system rat (Sprague-Dawley); settings: inhibition of L-[^3 H]nicotine (10 nM) binding
Procedure: Rats (Sprague-Dawley) were maintained on a 12 hour light/dark cycle and were allowed free access to water and food supplied by Wayne Lab Blox, Madison, Wis. Animals used in the present studies weighed 200 to 250 g. Brain membrane preparations were obtained from brain tissue of either males or females.
Rats were killed by decapitation following anesthesia with 70% CO2. Brains were removed and placed on an ice-cold platform.
The incubation buffer was Krebs-Ringers HEPES containing 200 mM TRIS buffer, pH 7.5. The binding reaction was terminated by filtration of the protein containing bound ligand onto glass fiber filters (Micro Filtration Systems) that had been soaked in buffer containing 0.5 percent polyethyleneimine. Filtration vacuum was -50 to -100 torr. Each filter was washed five times with 3 ml of ice-cold buffer. […] Nonspecific binding was determined by inclusion of 10 uM nonradioactive nicotine in the incubations.
The inhibition of L-[^3 H]nicotine binding by test compounds was determined by including one of eight different concentrations of the test compound in the incubation.

[4] = biological target: T2, ganglionic-type neuronal nicotinic receptors (PC12) (Rattus norvegicus, UniProt P04757+P12392); assay: cell-based; settings: PC12, ^86 Rb^+ efflux, percentage of maximal activation induced by (S)-(-)-nicotine
T2 construct: Ganglionic effects were established on the rat pheochromocytoma clonal line PC12; endogenous in cells; host or cells: PC12 (rat pheochromocytoma)
T2 sequence (P04757 26-499): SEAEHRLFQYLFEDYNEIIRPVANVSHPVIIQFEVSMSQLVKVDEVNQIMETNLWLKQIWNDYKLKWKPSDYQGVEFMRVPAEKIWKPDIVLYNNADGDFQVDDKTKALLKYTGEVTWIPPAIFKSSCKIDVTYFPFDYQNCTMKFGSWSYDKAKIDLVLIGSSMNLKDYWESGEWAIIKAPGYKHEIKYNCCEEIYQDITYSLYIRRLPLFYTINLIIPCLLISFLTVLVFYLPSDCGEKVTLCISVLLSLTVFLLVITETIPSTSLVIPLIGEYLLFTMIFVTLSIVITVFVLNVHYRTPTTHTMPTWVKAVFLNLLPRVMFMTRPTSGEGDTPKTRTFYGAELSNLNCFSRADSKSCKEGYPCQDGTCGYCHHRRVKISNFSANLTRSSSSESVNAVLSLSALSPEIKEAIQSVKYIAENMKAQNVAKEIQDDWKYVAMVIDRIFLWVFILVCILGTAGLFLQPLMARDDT
T2 sequence (P12392 21-495): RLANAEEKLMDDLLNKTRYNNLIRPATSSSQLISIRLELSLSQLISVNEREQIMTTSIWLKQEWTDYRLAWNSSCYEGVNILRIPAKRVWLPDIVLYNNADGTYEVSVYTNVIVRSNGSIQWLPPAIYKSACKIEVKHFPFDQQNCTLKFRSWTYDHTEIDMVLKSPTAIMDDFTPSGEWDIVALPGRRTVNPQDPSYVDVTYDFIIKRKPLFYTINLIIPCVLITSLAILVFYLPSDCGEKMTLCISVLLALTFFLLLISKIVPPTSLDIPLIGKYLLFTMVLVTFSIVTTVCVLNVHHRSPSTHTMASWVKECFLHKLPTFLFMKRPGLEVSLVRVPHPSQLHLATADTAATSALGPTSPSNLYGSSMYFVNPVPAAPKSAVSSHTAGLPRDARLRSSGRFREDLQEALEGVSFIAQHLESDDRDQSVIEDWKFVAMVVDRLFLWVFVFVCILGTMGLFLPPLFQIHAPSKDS
Source text: Determination of Interaction with Ganglia
Ganglionic effects were established on the rat pheochromocytoma clonal line PC12, which is a continuous clonal cell line of neural crest origin derived from a tumor of the rat adrenal medulla expressing ganglionic-typeneuronal nicotinic receptors (see Whiting et al., Nature, Vol. 327, pp. 515-518 (1987); Lukas, J. Pharmacol. Exp. Ther., Vol. 251, pp. 175-182 (1989); Whiting et al., Mol. Brain Res., Vol. 10, pp. 61-70 (1990)). Discussion concerning the heterogeneity of nicotinic receptors subtypes is set forth in Lukas et al. Internatl. Review Neurobiol., Vol. 34, pp. 25-130 (1992). Acetylcholine nicotinic receptors expressed in rat ganglia share a very high degree of homology with their human counterparts. See, Fomasari et al., Neurosci. Lett., Vol. 111, pp. 351-356 (1990) and Chini et al., Proc. Natl. Acad. Sci. USA, Vol. 89, pp. 1572-1576 (1992 ). Both clonal cell lines described above were maintained in proliferative growth phase according to routine protocols (Bencherif et al., Mol. Cell, Neurosci., Vol. 2, pp. 52-65, (1991 ) and Bencheft et al., J. Pharmacol. Exp. Ther., Vol. 257, pp. 946-953 (1991)). Intact cells on dishes were used for functional studies. Routinely, sample aliquots were reserved for determination of protein concentration using the method of Bradford, Anal. Biochem., Vol. 72, pp. 248-254 (1976) with bovine serum albumin as the standard.
Nicotinic acetylcholine receptor (nAChR) function was assayed using ^86 Rb^+ efflux according to a method described by Lukas et al., Anal. Biochem., Vol. 175, pp. 212-218 (1.988). […] The medium was removed and ^86 Rb^+ was quantitated using Cerenkov detection (see Lukas et al., Anal. Biochem., Vol. 175, pp. 212-218 (1988)). Specific ion efflux was determined as the difference in isotope efflux between total and non-specific efflux samples. Dose-response curves were plotted and the concentration resulting in half maximal activation of specific ion flux through nicotinic receptors determined for human muscle and rat ganglionic preparations (EC50).

Row | SMILES | pEC50 [1] | Dopamine Release Emax [1] [%] | pEC50 [2] | Receptor Activation Emax [3] [%] | pKi (nicotinic receptors) | pEC50 [3] | Emax ([4]; PC-12, read-out: Ganglion Effect Emax) [%] | Ganglion Effect Emax [4] [%]
1 | CN1CCC[C@H]1c1cccnc1 [Sample No. C-1, (S)--(-)--nicotine, reference compound] | 7.00 | 100 | 4.10 | 87 | – | – | – | –
2 | CCOc1cncc(/C=C/CCNC)c1 [Sample No. 1, (E)-N-methyl-4-[3-(5-ethoxypyridin)yl]-3-buten-1-amine] | 6.54 | 124 | – | 67 | 8.05 | 6.57 | 0 | –
3 | CNC(C)C/C=C/c1cccnc1 (centres unmarked) [Sample No. 2, (E)-N-methyl-5-(3-pyridinyl)-4-penten-2-amine] | 4.67 | 182 | – | 35 | 7.09 | 5.77 | – | 6
4 | CNCC/C=C/c1cccnc1 [Sample No. C-2, (E)-metanicotine, reference compound] | 5.94 | 81 | – | 79 | – | 6.14 | – | –
5 | CNCC/C=C/c1cncc(OC)c1 [Sample No. 3, (E)-N-methyl-4-[3-(5-methoxypyridin)yl]-3-buten-1-amine] | 5.63 | 106 | – | 62 | 8.15 | 6.33 | – | 0
